# Assay results published in publication PMC2810100 (Journal of medicinal chemistry, 2009).
# Tests used:
# recombinant CpIMPDH = molecular target: T1, recombinant CpIMPDH (Cryptosporidium parvum, UniProt Q8T6T2); format: biochemical; conditions: without BSA
# T1 sequence (Q8T6T2 1-400): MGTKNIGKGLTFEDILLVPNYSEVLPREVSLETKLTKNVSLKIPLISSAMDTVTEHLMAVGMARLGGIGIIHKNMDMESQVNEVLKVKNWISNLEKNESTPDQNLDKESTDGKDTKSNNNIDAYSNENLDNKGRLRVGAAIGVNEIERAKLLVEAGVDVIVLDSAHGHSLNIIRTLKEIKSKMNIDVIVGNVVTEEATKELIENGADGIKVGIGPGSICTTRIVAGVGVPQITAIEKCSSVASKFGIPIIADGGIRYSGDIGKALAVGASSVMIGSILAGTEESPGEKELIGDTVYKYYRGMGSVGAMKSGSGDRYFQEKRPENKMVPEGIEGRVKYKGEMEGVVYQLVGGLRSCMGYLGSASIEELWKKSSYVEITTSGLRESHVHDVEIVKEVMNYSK
# CpIMPDH = conditions: cited from earlier work
SMILES,Fold more potent than the (S)-enantiomer (33) (recombinant CpIMPDH),Mode of inhibition with respect to 1 (IMP) (CpIMPDH),Mode of inhibition with respect to NAD+ (CpIMPDH)
"C[C@@H](Oc1ccnc2ccccc12)c1cn(-c2ccc(Cl)c(Cl)c2)nn1 [Compound 32, (R)-4-(1-(1-(3,4-dichlorophenyl)-1H-1,2,3-triazol-4-yl)ethoxy)quinoline]",~ 14 fold,–,–
CC(Oc1ccccc1)C(=O)Nc1ccc(Cl)cc1 (stereo not drawn) [Compound 5],–,uncompetitive inhibition,noncompetitive (mixed) inhibition
